Test results: PMC5000617, “Antiproliferative and Pro-Apoptotic Effect of Novel Nitro-Substituted Hydroxynaphthanilides on Human Cancer Cell Lines” (International Journal of Molecular Sciences, 2016)

Tests used:
THP-1 cells [1] = assay: WST-1 cell proliferation assay, THP-1; format: cell-based, human
Method: (§1) Initially, we examined the effect of six nitro-substituted hydroxynaphthanilides on the proliferation of human leukaemia and breast carcinoma cell lines, using Water Soluble Tetrazolium Salts-1 (WST-1) assay. For such analyses, THP-1 and MCF-7 cells were treated with the compounds at concentrations ranging from 0.5 to 20 μM for 24 h. […] The inhibitory effect of 2 and 6 was statistically significant (p < 0.001) starting from the concentration of 2.5 and 5 μM in THP-1 and MCF-7 cells, respectively. From the concentration-response curves, the IC50 values were determined.
(§2) THP-1 human monocytic leukemia cell line, MCF-7 human breast adenocarcinoma cells and 3T3-L1 mouse embryonic fibroblast were purchased from the European Collection of Cell Cultures (ECACC, Salisbury, UK). Cells were routinely tested for the absence of mycoplasma (Hoechst 33258 staining method). THP-1 cells were maintained in RPMI 1640 culture medium containing 2 mM L-glutamine; MCF-7 and 3T3-L1 cells were cultured in DMEM medium. All of the culture media were supplemented with 10% heat-inactivated FBS and antibiotics (100 U/mL penicillin and 100 μg/mL streptomycin). Cells were maintained at 37 °C in a humidified atmosphere containing 5% CO2.
(§3) Cell proliferation was evaluated using Cell Proliferation Reagent WST-1 (2-(4-iodophenyl)-3-(4-nitrophenyl)-5-(2,4-disulfophenyl)-2H-tetrazolium) (Roche Diagnostics, Mannheim, Germany) according to the manufacturer´s instructions. THP-1 (5 × 10^4 cells/100 μL culture medium per well), MCF-7 cells (1 × 10^4 cells/100 μL per well), and 3T3-L1 (2.5 × 10^3 cells/100 μL per well) were cultured in 96-well plates in triplicate. The measurement was performed using Synergy 2 Multi-Mode Microplate Reader (BioTek, Winooski, VT, USA) after 24 h incubation of cells with tested compounds dissolved in DMSO and subsequently in RPMI 1640 to final concentration ranging 0.5–20 μM in the assays. Cell viability was assessed by dye exclusion test. THP-1 (2 × 10^5 cells/mL per well) and MCF-7 cells (8 × 10^4 cells/mL per well) were incubated in 24-well plates with the indicated concentrations of compounds for 24 h. The number of viable cells was determined using hemocytometer after their staining with a solution of erythrosin B (0.1% erythrosin B (w/v) in PBS). The assays were conducted in triplicate. The IC50 and LC50 values were calculated from fitted concentration-response curves using GraphPad Prism 5.00 software (GraphPad Software, San Diego, CA, USA).

MCF-7 cells [2] = assay: WST-1 cell proliferation assay, MCF-7; format: cell-based, human
Method: as §1, §2, §3

[3] = Erythrosin B dye exclusion viability test, MCF-7; format: cell-based; settings: human, MCF-7 cells; erythrosin B exclusion test, 24 h, mean ± SD; read-out: MCF-7 LC50
Method: (§4) Subsequently, for the comparison of the antiproliferative and cytotoxic effects we assessed the cell viability after 24 h treatment with compounds 1–6 in both tumour cell lines using the dye exclusion test.
as §2, §3

MCF-7 cells [4] = assay: Erythrosin B dye exclusion viability test, MCF-7; format: cell-based; settings: MCF-7, 24 h, vs control
Method: as §4, §2, §3

[5] = Annexin V-FITC/PI apoptosis assay by flow cytometry, THP-1; format: cell-based, human; settings: human, THP-1 cells, representative dot plot, read-out: quadrant I: viable cells
Method: (§5) Staining of cells by Annexin V-FITC conjugate reflects the externalization of phosphatidylserine on the outer surface of the cell membrane as one of the early indicators of apoptosis.
(§6) Early and late stages of apoptosis were detected using Annexin V-FITC Kit—Apoptosis Detection Kit faccording to the manufacturer´s instructions. […] At each time-point of incubation (12, 18, and 24 h) the cells were washed with ice-cold PBS prior to being resuspended at a concentration of 5 × 10^6 cells/mL in a total volume of 100 μL of 1× binding buffer. Annexin V-FITC solution (final concentration 0.25 μg/mL) and PI (final concentration 12.5 μg/mL) were added to each sample; the cell suspension was kept on ice and incubated for 15 min in the dark. After that, the analysis was carried out by flow cytometry. The data were evaluated using Kaluza Flow Cytometry Analysis 1.2. Per sample, a total number of 2 × 10^4 cells were analysed.

THP-1 cells [6] = assay: as above; format: cell-based, human
Method: as §5, §6

cyclin E1 = assay: Western blot of cyclin E1 in MCF-7 cells; format: cell-based, human; settings: MCF-7, 24 h
Method: (§7) Additionally, the cell cycle analysis allows determining the presence of a subdiploid cell population as a characteristic marker of cells with fractional DNA content. A significant increase (p < 0.001) of the sub-G1 peak was found only after the treatment with 5 µM of compound 2 in THP-1 cells, where an approximately eight-fold increase was observed compared to the drug-free control (Figure 4).
(§8) For Western blotting, cells were washed with PBS and lysed in lysis buffer (100 mM Tris-HCl, pH = 6.8; 20% glycerol; 1% SDS) containing protease and phosphatase inhibitor cocktails. Protein concentration was measured using Roti®-Quant universal (Carl Roth, Karsruhe, Germany) according to the manufacturer’s instructions. Cell lysates were supplemented with bromophenol blue (final concentration 0.01% (w/v)) and β-mercaptoethanol (final concentration 1% (v/v)) prior to being heated for 5 min at 95 °C. Equal amounts of protein (10 μg) were loaded into a 12% polyacrylamide gel, separated by SDS-polyacrylamide gel electrophoresis and subsequently electrotransferred onto nitrocellulose membranes. Reversible Ponceau S. staining was performed to assess equal sample loading. […] The intensity of bands was semi-quantitatively analysed using the ImageJ software (National Institute of Mental Health, Bethesda, MD, USA).

cyclin B1 = assay: Western blot of cyclin B1 in THP-1 cells; format: cell-based, human; settings: THP-1, 24 h
Method: as §7, §8

caspase 8 = assay: Western blot of caspase 8 in THP-1 cells; format: cell-based, human; settings: THP-1, 24 h
Method: Most of the apoptotic signalling pathways are controlled by caspases that belong to a group of cysteine proteases. To assess whether compound 2 affects these signalling cascades and which pathway is activated (intrinsic or extrinsic), the activities of caspase 3, caspase 9, and caspase 8 were evaluated using Western blot analysis.
as §8

O=C(Nc1cccc([N+](=O)[O-])c1)c1cc2ccccc2cc1O [Compound 2, 3-hydroxy-N-(3-nitrophenyl)naphthalene-2-carboxamide]
IC50 (THP-1 cells [1]; Homo sapiens, THP-1, WST-1, 24 h, 0.5-20 μM, mean ± SD): 3.06 ± 0.206 µM
effect on cell proliferation (THP-1 cells [1]; THP-1, 0.5-20 μM, 24 h): inhibit cell growth in both cell lines in a dose-dependent manner
concentration from which the inhibitory effect on proliferation was statistically significant (p < 0.001) (THP-1 cells [1]; THP-1, 24 h): 2.5 µM
IC50 (MCF-7 cells [2]; Homo sapiens, MCF7, WST-1, 24 h, 0.5-20 μM, mean ± SD): 4.61 ± 0.068 µM
effect on cell proliferation (MCF-7 cells [2]; MCF-7, 0.5-20 μM, 24 h): inhibit cell growth in both cell lines in a dose-dependent manner
concentration from which the inhibitory effect on proliferation was statistically significant (p < 0.001) (MCF-7 cells [2]; MCF-7, 24 h): 5 µM
CC50 at 24 h [3]: > 20 µM
effect on cell viability (MCF-7 cells [4]): Neither compound 2 nor 6 reduced cell viability under 50%
viability at 12 h, 2.5 µM ([5]; THP-1, 2.5 μM, 12 h): 92.1%
viability at 18 h, 2.5 µM ([5]; THP-1, 2.5 μM, 18 h): 90.2%
viability at 24 h, 2.5 µM ([5]; THP-1, 2.5 μM, 24 h): 87.8%
viability at 12 h, 5 µM ([5]; THP-1, 5 μM, 12 h): 85.8%
viability at 18 h, 5 µM ([5]; THP-1, 5 μM, 18 h): 76.7%
viability at 24 h, 5 µM ([5]; THP-1, 5 μM, 24 h): 75.7%
viability at 12 h, 10 µM ([5]; THP-1, 10 μM, 12 h): 64.9%
viability at 18 h, 10 µM ([5]; THP-1, 10 μM, 18 h): 57.2%
viability at 24 h, 10 µM ([5]; THP-1, 10 μM, 24 h): 44.6%
double-stained (late apoptotic/secondary necrotic) cells (THP-1 cells [6]; THP-1, 10 µM, 12 h, mean): 22.48%
proportion of early apoptotic cells (THP-1 cells [6]; THP-1, 10 µM, 12 h, mean, control 2.41%): 9.37%
double-stained (late apoptotic/secondary necrotic) cells (THP-1 cells [6]; THP-1, 10 µM, 24 h, mean): 41.88%
pro-apoptotic effect (THP-1 cells [6]; THP-1, 2.5, 5, 10 µM, 12, 18, 24 h): induced a dose-dependent increase of the percentage of early apoptotic as well as late apoptotic/secondary necrotic
expression of cyclin E1 (cyclin E1): dose-dependent decrease in expression of cyclin E1
total protein levels of cyclin B1 (cyclin B1): total protein levels of cyclin B1 were not changed
level of active caspase 8 (caspase 8): level of active caspase 8 was not altered
